In US8586530B2, “Modulation of inhibition of ferrochelatase by N-methyl protoporphyrin” (University of South Florida, priority 2006, dated 2013):

Molecular target: T1, ferrochelatase variant P255G (Mus musculus, UniProt P22315, P308G)
T1 construct: In wild-type, murine, mature ferrochelatase, five tryptophan residues; penta-histidine tag (N); made in house; host or cells: E. coli BL21(DE3)
T1 sequence (P22315 54-422 P308G): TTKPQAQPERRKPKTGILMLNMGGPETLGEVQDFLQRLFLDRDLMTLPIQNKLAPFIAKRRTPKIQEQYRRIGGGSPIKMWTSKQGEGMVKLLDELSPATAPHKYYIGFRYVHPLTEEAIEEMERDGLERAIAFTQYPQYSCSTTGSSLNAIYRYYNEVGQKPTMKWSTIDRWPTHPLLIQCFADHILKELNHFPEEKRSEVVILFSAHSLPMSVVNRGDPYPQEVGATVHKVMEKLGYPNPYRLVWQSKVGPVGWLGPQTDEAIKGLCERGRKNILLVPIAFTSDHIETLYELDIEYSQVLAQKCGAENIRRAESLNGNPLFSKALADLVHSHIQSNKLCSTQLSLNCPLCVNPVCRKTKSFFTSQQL
Assay: Transient kinetic analysis of NMPP inhibition (stopped-flow, zinc-protoporphyrin formation)
Format: biochemical, murine
Method: Enzyme (0.5 μM) was reacted with protoporphyrin (5 μM) and zinc-acetate (15 μM) in the presence of various concentrations of NMPP. The pseudo first-order rate constant k was obtained from analysis of the time course (see Materials and Methods and FIG. 4) and plotted against NMPP concentration. The enzymes used in each set were: A. wild-type ferrochelatase; B. variant P255R; C. variant P255G.
The pseudo-first order rate constant dependence on NMPP concentration was best described by equation 2:
[formula] and k−1 are the forward and reverse rate constants, respectively.
Although NMPP binding to P255G occurred via a one-step reaction, the values for the rate constants associated with this step (k1 and k−1) were similar to those determined for the rate-limiting step of the kinetic pathway for inhibition of ferrochelatase and P255R by NMPP.
Transient Kinetic Analysis. The kinetic steps involved in NMPP binding to ferrochelatase were assessed using stopped-flow absorption spectroscopic analysis by monitoring the enzymatic reaction in the presence of various concentrations of the inhibitor NMPP. The reactions were performed using a rapid scanning stopped-flow spectrophotometer (model RSM-1000; OLIS Inc.), equipped with a stopped-flow mixer and an observation chamber with an optical path-length of 4 mm. The dead time of the instrument is ˜2 ms. […] Enzymatic activity was monitored by following the increase in absorbance at 420 nm for zinc-protoporphyrin production using Zn^2+ and protoporphyrin as substrates.
The enzyme and substrate stock solutions were diluted in 100 mM Tris-acetate, pH 8.0, containing 0.5% Tween-80. […] The enzymatic reaction was initiated by mixing the contents from both syringes and reaction progression was monitored by following the increase in absorbance at 420 nm. The data were analyzed by fitting the observed absorbance values to equation 4:
[formula] where A is the observed absorbance, A0 is the initial absorbance, vs is the steady-state velocity, v0 is the initial velocity and k is the pseudo-first order rate constant for inhibitor binding. […]

Substance: N-methyl protoporphyrin [NMPP]
- forward rate constant (one-step binding): 8.2e+06 M⁻¹ s⁻¹
- reverse rate constant k−1 (one-step binding): 18.7 s⁻¹
- Ki (one-step fit (equation 2), from the rate constants, read-out: apparent inhibition constant Ki^app): 2.3 µM
